# According to patent US9867794B2, “Regulation of osteopontin” (Pathologica LLC, priority 2007, dated 2018):
# Values joined by “and” are separate entries in the source; they are usually repeats but may differ in a detail not shown here. Equal values may be shown once.
# Legend:
# IL10 = test: Microarray analysis of mononuclear cells, IL10 probe; type: cell-based, human; conditions: presence of MGBG, all samples
# Experimental: (§1) Blood samples were obtained from HIV infected patients (N=9) with positive viral load and reduced CD4 counts, and non-HIV infected, healthy controls (N=6). Blood was collected into heparin anticoagulant tubes and mononuclear cells were isolated by Percoll gradient centrifugation. The cells from each sample were split into 2: one-half receives MGBG at concentration of 10 μM and the other half received no treatment. All samples were then cultured overnight in RPMI media with 10% fetal bovine serum at 37° C. under non-adherent conditions. The next day cells were collected by centrifugation, washed one time with PBS, and lysed by resuspension in TRIZOL, and total RNA was prepared according to manufacturer's instructions (Invitrogen, Carlsbad, Calif.). […] The RNA was then amplified for microarray analysis using a 2 cycle amplification protocol according to the manufacturer's instructions (Affymetrix, Santa Clara, Calif.). The amplified RNAs were then hybridized to Human Genome U133 plus 2.0 microarrays (Affymetrix) and expression data was obtained using an Affymetrix scanner and GCOS protocols. Microarray data was analyzed with GeneSpring Microarray Suite. Results were normalized using a set of 100 probe sets determined by the manufacturer to have relatively invariant expression across most cell types.
# SPP1 = test: Microarray analysis of mononuclear cells, SPP1; type: cell-based, human; conditions: for SPP1 signal +, Average: 10 μM MGBG
# Experimental: as §1
# TNFα = test: QRT-PCR in CD14/CD16-separated cell fractions, TNFα RNA; type: cell-based, human; conditions: monocytes, 10 μM MGBG, p=0.03
# Experimental: The changes induced by MGBG in different blood cell types were determined for osteopontin and adenosine deaminase and 7 other genes. For this experiment, blood samples were obtained from 6 healthy controls (3 men/3 women from 20 to 55 years of age) and mononuclear cells were isolated via Percoll gradient centrifugation. The cells were then incubated for 3 hours in RPMI media plus 10% fetal bovine serum at 37 C. At that point MGBG was added to 10 μM to half of each sample and then the cells were incubated at 37 C for 20 more hours. The cells were then bound to magnetic beads coated with antibodies to human CD16. Bound cells (CD16 expressing) were separated from unbound cells using an AutoMACs according to manufacturer's instructions (Miltenyi, Auburn Calif.). Then CD16+ cells are released from the magnetic beads and both the CD16+ and CD16− cells are combined with magnetic beads coated with antibodies to human CD14. Antibody bound and unbound cells were then separated using the AutoMACs machine. […] Cells that neither express CD16 nor CD14 (the −/− Cells). This is mostly T lymphocytes; 2. Cells that only express CD16. This includes contaminating granulocytes not removed by Percoll centrifugation and CD16+ monocytes with very low CD14 expression; 3. […] After separation, cells of each fraction are washed with PBS and the number of viable cells determined by trypan blue exclusion. […]
# Human Osteopontin (OPN) = test: Osteopontin ELISA of PBMC cell culture supernatants (CCS); type: cell-based; conditions: for average OPN level in CCS: fifth day
# Description: Peripheral Blood Mononuclear Cells (PBMCs) were isolated from patients diagnosed with Amyotrophic Lateral Sclerosis (ALS), Alzheimer's Disease (AD), Human Immunodeficiency Virus (HIV), Breast Cancer, AIDS Dementia, and healthy donors. The heparinised blood was mixed with equal volumes of sterile phosphate-buffered saline (Ca^++, Mg^++ free PBS) and layered over Percoll (Amersham Biosciences, Piscataway, N.J.) at 1.087 g/ml. The cells were centrifuged and the mononuclear cell layer was collected. The PBMCs were cultured in a concentration of 1×10^6 cells/ml in non-adherent conditions in polypropylene tubes containing complete media (RPMI 1640, 10% fetal bovine serum (HyClone, Logan, Utah), 1% Sodium Pyruvate) and incubated in a 5% CO2, 37° C. humidified incubator. The cells were grown in the presence of 0 μM, 0.1 μM, 1 μM, 10 μM, or 100 μM MGBG plus complete media and the cell culture supernatants (CCS) were isolated on the fifth day and frozen at −20° C. until ready to be tested. Human Osteopontin (OPN) levels were measured with the Human Osteopontin ELISA kit (R&D Systems, Inc., Minneapolis, Minn.) according to manufacturer's instructions. The CCS were tested in duplicate and the Magellan v. 4.0 software (Salzburg, Austria) was used to analyze the results. The average OPN levels (ng/ml) in 0 μM, 0.1 μM, 1 μM, 10 μM, and 100 μM MGBG were measured. The results are depicted in FIGS. 3-7 as a graph comparing diseased sample with normal sample. […] The solid lines represent diseased cells and the dashed lines represent normal cells.
structure (smiles),measurement,setting,value
"CC(/C=N/NC(=N)N)=N\NC(=N)N [MGBG, 1,1′ [methylethanediylidene]dinitrilodiguanidine]","average change in IL10 signal, upregulated",IL10,5.6 fold
same,"SPP1 signal +, Average",SPP1; average of HIV samples,498
same,"SPP1 signal +, Average","SPP1; average of control samples (C6-, M6-177)",633
same,"SPP1 fold change, ON/MGBG ratio (down-regulation)","SPP1; 10 μM, individual donor samples",60.5 fold and 47.8 fold and 11.5 fold and 43.9 fold and 0.7 fold and 7.0 fold and 2.3 fold and 438.8 fold and 1.4 fold and 5.7 fold and 5.9 fold and 68.0 fold and 57.9 fold and 4.2 fold and 1.2 fold
same,samples with 2 fold or greater reductions in SPP1 signal,SPP1; of the 15 samples evaluated,12
same,SPP1 signal +,"SPP1; presence of 10 μM MGBG overnight, individual donor samples",1480 and 113 and 34 and 143 and 458 and 53 and 81 and 264 and 232 and 1519 and 1647 and 64 and 22 and 1684 and 487
same,TNFα RNA median signal relative to no MGBG,TNFα,0.32
same,average OPN level in CCS,"Human Osteopontin (OPN); AD PBMCs (n=1), 0.1 μM MGBG",0.477 ng/mL
same,average OPN level in CCS,"Human Osteopontin (OPN); AD PBMCs (n=1), 1 μM MGBG",0.201 ng/mL
same,average OPN level in CCS,"Human Osteopontin (OPN); AD PBMCs (n=1), 10 μM MGBG",0.136 ng/mL
same,average OPN level in CCS,"Human Osteopontin (OPN); AD PBMCs (n=1), 100 μM MGBG",0 ng/mL
same,average CCS OPN value,"Human Osteopontin (OPN); AIDS Dementia PBMCs (AIRL2005-374), 10 μM MGBG",0.8905
same,average CCS OPN value,"Human Osteopontin (OPN); ALS PBMCs (n=2), 10 μM MGBG",17.669
same,average OPN level in CCS,"Human Osteopontin (OPN); HIV PBMCs (n=2), 0.1 μM MGBG",11.833 ng/mL
same,average OPN level in CCS,"Human Osteopontin (OPN); HIV PBMCs (n=2), 1 μM MGBG",3.481 ng/mL
same,average OPN level in CCS,"Human Osteopontin (OPN); HIV PBMCs (n=2), 10 μM MGBG",0.447 ng/mL
same,average OPN level in CCS,"Human Osteopontin (OPN); HIV PBMCs (n=2), 100 μM MGBG",0 ng/mL
same,average OPN level in CCS,"Human Osteopontin (OPN); breast cancer PBMCs (n=3), 0.1 μM MGBG",20.89 ng/mL
same,average OPN level in CCS,"Human Osteopontin (OPN); breast cancer PBMCs (n=3), 1 μM MGBG",8.87 ng/mL
same,average OPN level in CCS,"Human Osteopontin (OPN); breast cancer PBMCs (n=3), 10 μM MGBG",2.12 ng/mL
same,average OPN level in CCS,"Human Osteopontin (OPN); breast cancer PBMCs (n=3), 100 μM MGBG",0.84 ng/mL
same,average OPN level in CCS,"Human Osteopontin (OPN); healthy/normal PBMCs (n=3), 0.1 μM MGBG",9.69 ng/mL
same,average OPN level in CCS,"Human Osteopontin (OPN); healthy/normal PBMCs (n=3), 1 μM MGBG",4.85 ng/mL
same,average OPN level in CCS,"Human Osteopontin (OPN); healthy/normal PBMCs (n=3), 10 μM MGBG",1.07 ng/mL
same,average OPN level in CCS,"Human Osteopontin (OPN); healthy/normal PBMCs (n=3), 100 μM MGBG",0.14 ng/mL
